{"source": "patent US4471131A", "about": "“Novel silyl esters of N-phosphonomethylglycine” (Monsanto Company, priority 1983, dated 1984)", "assay_in_all_cases": "post-emergence herbicidal activity, greenhouse", "assay_type_in_all_cases": "in vivo", "key": {"[1]": {"system": "Panicum Spp", "details": "Table III", "outline": "(§1)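 Each treated pan, grown from seed in topsoil and watered from below, was sprayed at the age of two to three weeks with a solution or suspension of about 0.4% emulsifier by weight carrying the test compound. Injury relative to control pans was recorded roughly two and four weeks afterward.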"}, "[2]": {"system": "Rice", "details": "Table III", "outline": "as §1"}, "[3]": {"system": "Downy Brome", "outline": "as §1"}, "[4]": {"system": "Canada Thistle", "details": "Table II", "outline": "as §1"}, "[5]": {"system": "Yellow Nutsedge", "details": "Table II", "outline": "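After sowing in soil-filled pans and growing under greenhouse conditions, plants at two to three weeks were sprayed post-emergence with the test compound in a formulation containing approximately 0.4% emulsifier by weight. Observations of plant injury, relative to controls, followed at about two and four weeks.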"}, "[6]": {"system": "Hemp Sesbania", "details": "Table III", "outline": "as §1"}, "[7]": {"details": "2 WAT, 1.1 kg/h, formulated in anhydrous tetrahydrofuran"}, "[8]": {"details": "2 WAT, 5.6 kg/h, formulated in anhydrous tetrahydrofuran"}, "[9]": {"details": "2 WAT, .28 kg/h, formulated in anhydrous tetrahydrofuran"}, "[10]": {"details": "4 WAT, 1.1 kg/h, formulated in anhydrous tetrahydrofuran"}, "[11]": {"details": "4 WAT, 5.6 kg/h, formulated in anhydrous tetrahydrofuran"}, "[12]": {"details": "4 WAT, .28 kg/h, formulated in anhydrous tetrahydrofuran"}, "[13]": {"details": "2 WAT, 11.2 kg/h, formulated in anhydrous tetrahydrofuran"}, "[14]": {"details": "4 WAT, 11.2 kg/h, formulated in anhydrous tetrahydrofuran"}}}
{"molecule": "CCCCOC(=O)CNCP(=O)(O)O[Si](c1ccccc1)(c1ccccc1)C(C)(C)C", "note": "[Ex. 6, Glycine, N--((([(1,1-Dimethylethyl)Diphenylsilyl]Oxy)Hydroxyphosphinyl)methyl)-Butyl Ester]", "values": [{"measurement": "Plant Response Index (S)", "setting": "[1]; [7]", "result": "2 (50-74% inhibition)"}, {"measurement": "Plant Response Index (S)", "setting": "[1]; 2 WAT, 5.6 kg/h", "result": "4 (100% inhibition)"}, {"measurement": "Plant Response Index (S)", "setting": "[1]; [8]", "result": "2 (50-74% inhibition)"}, {"measurement": "Plant Response Index (S)", "setting": "[1]; 2 WAT, .28 kg/h", "result": "2 (50-74% inhibition)"}, {"measurement": "Plant Response Index (S)", "setting": "[1]; [9]", "result": "0 (0-24% inhibition)"}, {"measurement": "Plant Response Index (S)", "setting": "[1]; 4 WAT, 1.1 kg/h", "result": "3 (75-99% inhibition)"}, {"measurement": "Plant Response Index (S)", "setting": "[1]; [10]", "result": "2 (50-74% inhibition)"}, {"measurement": "Plant Response Index (S)", "setting": "[1]; 4 WAT, 5.6 kg/h", "result": "4 (100% inhibition)"}, {"measurement": "Plant Response Index (S)", "setting": "[1]; [11]", "result": "3 (75-99% inhibition)"}, {"measurement": "Plant Response Index (S)", "setting": "[1]; [12]", "result": "0 (0-24% inhibition)"}, {"measurement": "Plant Response Index (O)", "setting": "[2]; 2 WAT, 1.1 kg/h", "result": "1 (25-49% inhibition)"}, {"measurement": "Plant Response Index (O)", "setting": "[2]; [7]", "result": "0 (0-24% inhibition)"}, {"measurement": "Plant Response Index (O)", "setting": "[2]; 2 WAT, 5.6 kg/h", "result": "2 (50-74% inhibition)"}, {"measurement": "Plant Response Index (O)", "setting": "[2]; [8]", "result": "1 (25-49% inhibition)"}, {"measurement": "Plant Response Index (O)", "setting": "[2]; 2 WAT, .28 kg/h", "result": "0 (0-24% inhibition)"}, {"measurement": "Plant Response Index (O)", "setting": "[2]; [9]", "result": "0 (0-24% inhibition)"}, {"measurement": "Plant Response Index (O)", "setting": "[2]; 4 WAT, 1.1 kg/h", "result": "1 (25-49% inhibition)"}, {"measurement": "Plant Response Index (O)", "setting": "[2]; [10]", "result": "0 (0-24% inhibition)"}, {"measurement": "Plant Response Index (O)", "setting": "[2]; 4 WAT, 5.6 kg/h", "result": "3 (75-99% inhibition)"}, {"measurement": "Plant Response Index (O)", "setting": "[2]; [11]", "result": "2 (50-74% inhibition)"}, {"measurement": "Plant Response Index (O)", "setting": "[2]; [12]", "result": "0 (0-24% inhibition)"}, {"measurement": "Plant Response Index (J)", "setting": "[3]; Table II, 2 WAT, 5.6 kg/h", "result": "0 (0-24% inhibition)"}, {"measurement": "Plant Response Index (J)", "setting": "[3]; Table II, 2 WAT, 5.6 kg/h, formulated in anhydrous tetrahydrofuran", "result": "0 (0-24% inhibition)"}, {"measurement": "Plant Response Index (J)", "setting": "[3]; Table II, 2 WAT, 11.2 kg/h", "result": "0 (0-24% inhibition)"}, {"measurement": "Plant Response Index (J)", "setting": "[3]; Table II, 2 WAT, 11.2 kg/h, formulated in anhydrous tetrahydrofuran", "result": "0 (0-24% inhibition)"}, {"measurement": "Plant Response Index (J)", "setting": "[3]; Table II, 4 WAT, 5.6 kg/h", "result": "0 (0-24% inhibition)"}, {"measurement": "Plant Response Index (J)", "setting": "[3]; Table II, 4 WAT, 5.6 kg/h, formulated in anhydrous tetrahydrofuran", "result": "0 (0-24% inhibition)"}, {"measurement": "Plant Response Index (J)", "setting": "[3]; Table II, 4 WAT, 11.2 kg/h", "result": "1 (25-49% inhibition)"}, {"measurement": "Plant Response Index (J)", "setting": "[3]; Table II, 4 WAT, 11.2 kg/h, formulated in anhydrous tetrahydrofuran", "result": "0 (0-24% inhibition)"}, {"measurement": "Plant Response Index (J)", "setting": "[3]; Table III, 2 WAT, 1.1 kg/h", "result": "1 (25-49% inhibition)"}, {"measurement": "Plant Response Index (J)", "setting": "[3]; Table III, 2 WAT, 1.1 kg/h, formulated in anhydrous tetrahydrofuran", "result": "1 (25-49% inhibition)"}, {"measurement": "Plant Response Index (J)", "setting": "[3]; Table III, 2 WAT, 5.6 kg/h", "result": "1 (25-49% inhibition)"}, {"measurement": "Plant Response Index (J)", "setting": "[3]; Table III, 2 WAT, 5.6 kg/h, formulated in anhydrous tetrahydrofuran", "result": "1 (25-49% inhibition)"}, {"measurement": "Plant Response Index (J)", "setting": "[3]; Table III, 2 WAT, .28 kg/h", "result": "1 (25-49% inhibition)"}, {"measurement": "Plant Response Index (J)", "setting": "[3]; Table III, 2 WAT, .28 kg/h, formulated in anhydrous tetrahydrofuran", "result": "0 (0-24% inhibition)"}, {"measurement": "Plant Response Index (J)", "setting": "[3]; Table III, 4 WAT, 1.1 kg/h", "result": "1 (25-49% inhibition)"}, {"measurement": "Plant Response Index (J)", "setting": "[3]; Table III, 4 WAT, 1.1 kg/h, formulated in anhydrous tetrahydrofuran", "result": "1 (25-49% inhibition)"}, {"measurement": "Plant Response Index (J)", "setting": "[3]; Table III, 4 WAT, 5.6 kg/h", "result": "3 (75-99% inhibition)"}, {"measurement": "Plant Response Index (J)", "setting": "[3]; Table III, 4 WAT, 5.6 kg/h, formulated in anhydrous tetrahydrofuran", "result": "2 (50-74% inhibition)"}, {"measurement": "Plant Response Index (J)", "setting": "[3]; Table III, 4 WAT, .28 kg/h, formulated in anhydrous tetrahydrofuran", "result": "0 (0-24% inhibition)"}, {"measurement": "Plant Response Index (A)", "setting": "[4]; 2 WAT, 5.6 kg/h", "result": "0 (0-24% inhibition)"}, {"measurement": "Plant Response Index (A)", "setting": "[4]; [8]", "result": "0 (0-24% inhibition)"}, {"measurement": "Plant Response Index (A)", "setting": "[4]; 2 WAT, 11.2 kg/h", "result": "3 (75-99% inhibition)"}, {"measurement": "Plant Response Index (A)", "setting": "[4]; [13]", "result": "0 (0-24% inhibition)"}, {"measurement": "Plant Response Index (A)", "setting": "[4]; 4 WAT, 5.6 kg/h", "result": "1 (25-49% inhibition)"}, {"measurement": "Plant Response Index (A)", "setting": "[4]; [11]", "result": "0 (0-24% inhibition)"}, {"measurement": "Plant Response Index (A)", "setting": "[4]; 4 WAT, 11.2 kg/h", "result": "4 (100% inhibition)"}, {"measurement": "Plant Response Index (A)", "setting": "[4]; [14]", "result": "1 (25-49% inhibition)"}, {"measurement": "Plant Response Index (G)", "setting": "[5]; 2 WAT, 5.6 kg/h", "result": "0 (0-24% inhibition)"}, {"measurement": "Plant Response Index (G)", "setting": "[5]; [8]", "result": "0 (0-24% inhibition)"}, {"measurement": "Plant Response Index (G)", "setting": "[5]; 2 WAT, 11.2 kg/h", "result": "1 (25-49% inhibition)"}, {"measurement": "Plant Response Index (G)", "setting": "[5]; [13]", "result": "0 (0-24% inhibition)"}, {"measurement": "Plant Response Index (G)", "setting": "[5]; 4 WAT, 5.6 kg/h", "result": "1 (25-49% inhibition)"}, {"measurement": "Plant Response Index (G)", "setting": "[5]; [11]", "result": "1 (25-49% inhibition)"}, {"measurement": "Plant Response Index (G)", "setting": "[5]; 4 WAT, 11.2 kg/h", "result": "2 (50-74% inhibition)"}, {"measurement": "Plant Response Index (G)", "setting": "[5]; [14]", "result": "1 (25-49% inhibition)"}, {"measurement": "Plant Response Index (R)", "setting": "[6]; 2 WAT, 1.1 kg/h", "result": "1 (25-49% inhibition)"}, {"measurement": "Plant Response Index (R)", "setting": "[6]; [7]", "result": "1 (25-49% inhibition)"}, {"measurement": "Plant Response Index (R)", "setting": "[6]; 2 WAT, 5.6 kg/h", "result": "2 (50-74% inhibition)"}, {"measurement": "Plant Response Index (R)", "setting": "[6]; [8]", "result": "4 (100% inhibition)"}, {"measurement": "Plant Response Index (R)", "setting": "[6]; [9]", "result": "0 (0-24% inhibition)"}, {"measurement": "Plant Response Index (R)", "setting": "[6]; 4 WAT, 1.1 kg/h", "result": "1 (25-49% inhibition)"}, {"measurement": "Plant Response Index (R)", "setting": "[6]; [10]", "result": "0 (0-24% inhibition)"}, {"measurement": "Plant Response Index (R)", "setting": "[6]; 4 WAT, 5.6 kg/h", "result": "2 (50-74% inhibition)"}, {"measurement": "Plant Response Index (R)", "setting": "[6]; [11]", "result": "4 (100% inhibition)"}, {"measurement": "Plant Response Index (R)", "setting": "[6]; [12]", "result": "0 (0-24% inhibition)"}]}
